Laboratory results reported in patent publication US11759471B2, “Modified release pharmaceutical composition and method for the treatment of mental disorders” (MEDICAL AND PHARMACEUTICAL INDUSTRY TECHNOLOGY AND …, priority 2019, dated 2023).

Tests used:
[1] = In vitro dissolution test, USP Apparatus 2 (paddle); format: physicochemical; settings: FIG. 1, 3 mg paliperidone in raw form
Method: In vitro dissolution test was conducted in a USP Apparatus 2 (paddle) at 37±0.5° C., 50 rpm, in a solution having 750 mL of 0.1 N HCl and 1000 mL of pH 6.8 buffer
FIG. 1 discloses the dissolution release amount for 25 mg quetiapine in tablet of reference listed drug, 3 mg paliperidone in raw form.

[2] = Dissolution of methacrylic acid coated samples in pH1.2 solvent; format: physicochemical; settings: methacrylic acid coated samples with different encapsulation efficiency
Method: Further use carried out with different encapsulation efficiency of experiments, and the samples with different encapsulation efficiency were test pH1.2 solvent dissolve. At the same time, it can be known that the results of the dissolution rate of paliperidone within 2 hours is not more than 10%. The present invention can be achieved effect of delayed release of paliperidone.

[3] = as measured by blood concentration; cited from earlier work

dissolution amount of paliperidone after pH change ([1]; after 120 minutes, pH increased from 1.2 to 6.8, slightly decreased): above 100%
dissolution amount of paliperidone ([1]; less than 10 minutes, then maintained, pH 1.2): above 100%
dissolution rate of paliperidone within 2 hours [2]: not more than 10%
Structure (SMILES): Cc1nc2n(c(=O)c1CCN1CCC(c3noc4cc(F)ccc34)CC1)CCCC2O (stereo not shown) [paliperidone]
half-life in patients' blood [3]: 20 to 28 h
